Experimental data reported in patent publication US20180099931A1 (AbbVie S.à.r.l., priority 2016, published 2018).
Like-named read-outs stand apart in the source and are kept apart here.

Biological target: T1, F508delCFTR (Homo sapiens, UniProt P13569, DEL508-508)
T1 construct: expressed in transfected cells; host or cells: CFBE41o- human lung-derived epithelial cells (CFBE4lo-F508delCFTR-HRP), doxycycline-inducible
Experiment: Cell Surface Expression-Horse Radish Peroxidase (CSE-HRP) Assay;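 for Maximum % activity (with co-corrector): co-corrector and positive control are both the same reference corrector at 2 µM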;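 for Maximum % activity (without co-corrector): percent of the 2 µM on-plate positive control corrector response above DMSO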
Assay type: cell-based
Conditions: for Maximum % activity (with co-corrector) / Emax: maximum at any tested concentration, normalized to on-plate positive control; for Emax: read-out: Maximum % activity (without co-corrector)

[1] = CSE-HRP, test compound without co-corrector, read-out: EC50 (without co-corrector)
[2] = CSE-HRP, with co-corrector (2 μM of 3-[(2R,4R)-4-({[1-(2,2-difluoro-1,3-benzodioxol-5-yl)cyclopropyl]carbonyl}amino)-7-methoxy-3,4-dihydro-2H-chromen-2-yl]benzoic acid), read-out: EC50 (with co-corrector)
[3] = CSE-HRP, with co-corrector (2 μM)
[4] = test compound without co-corrector
[5] = test compound without co-corrector, read-out: EC50 (without co-corrector)
[6] = with co-corrector (2 μM of 3-[(2R,4R)-4-({[1-(2,2-difluoro-1,3-benzodioxol-5-yl)cyclopropyl]carbonyl}amino)-7-methoxy-3,4-dihydro-2H-chromen-2-yl]benzoic acid), read-out: EC50 (with co-corrector)
[7] = with co-corrector (2 μM of 3-[(2R,4R)-4-({[1-(2,2-difluoro-1,3-benzodioxol-5-yl)cyclopropyl]carbonyl}amino)-7-methoxy-3,4-dihydro-2H-chromen-2-yl]benzoic acid)

T1 sequence (P13569 with tags, fused parts or gaps DEL508-508): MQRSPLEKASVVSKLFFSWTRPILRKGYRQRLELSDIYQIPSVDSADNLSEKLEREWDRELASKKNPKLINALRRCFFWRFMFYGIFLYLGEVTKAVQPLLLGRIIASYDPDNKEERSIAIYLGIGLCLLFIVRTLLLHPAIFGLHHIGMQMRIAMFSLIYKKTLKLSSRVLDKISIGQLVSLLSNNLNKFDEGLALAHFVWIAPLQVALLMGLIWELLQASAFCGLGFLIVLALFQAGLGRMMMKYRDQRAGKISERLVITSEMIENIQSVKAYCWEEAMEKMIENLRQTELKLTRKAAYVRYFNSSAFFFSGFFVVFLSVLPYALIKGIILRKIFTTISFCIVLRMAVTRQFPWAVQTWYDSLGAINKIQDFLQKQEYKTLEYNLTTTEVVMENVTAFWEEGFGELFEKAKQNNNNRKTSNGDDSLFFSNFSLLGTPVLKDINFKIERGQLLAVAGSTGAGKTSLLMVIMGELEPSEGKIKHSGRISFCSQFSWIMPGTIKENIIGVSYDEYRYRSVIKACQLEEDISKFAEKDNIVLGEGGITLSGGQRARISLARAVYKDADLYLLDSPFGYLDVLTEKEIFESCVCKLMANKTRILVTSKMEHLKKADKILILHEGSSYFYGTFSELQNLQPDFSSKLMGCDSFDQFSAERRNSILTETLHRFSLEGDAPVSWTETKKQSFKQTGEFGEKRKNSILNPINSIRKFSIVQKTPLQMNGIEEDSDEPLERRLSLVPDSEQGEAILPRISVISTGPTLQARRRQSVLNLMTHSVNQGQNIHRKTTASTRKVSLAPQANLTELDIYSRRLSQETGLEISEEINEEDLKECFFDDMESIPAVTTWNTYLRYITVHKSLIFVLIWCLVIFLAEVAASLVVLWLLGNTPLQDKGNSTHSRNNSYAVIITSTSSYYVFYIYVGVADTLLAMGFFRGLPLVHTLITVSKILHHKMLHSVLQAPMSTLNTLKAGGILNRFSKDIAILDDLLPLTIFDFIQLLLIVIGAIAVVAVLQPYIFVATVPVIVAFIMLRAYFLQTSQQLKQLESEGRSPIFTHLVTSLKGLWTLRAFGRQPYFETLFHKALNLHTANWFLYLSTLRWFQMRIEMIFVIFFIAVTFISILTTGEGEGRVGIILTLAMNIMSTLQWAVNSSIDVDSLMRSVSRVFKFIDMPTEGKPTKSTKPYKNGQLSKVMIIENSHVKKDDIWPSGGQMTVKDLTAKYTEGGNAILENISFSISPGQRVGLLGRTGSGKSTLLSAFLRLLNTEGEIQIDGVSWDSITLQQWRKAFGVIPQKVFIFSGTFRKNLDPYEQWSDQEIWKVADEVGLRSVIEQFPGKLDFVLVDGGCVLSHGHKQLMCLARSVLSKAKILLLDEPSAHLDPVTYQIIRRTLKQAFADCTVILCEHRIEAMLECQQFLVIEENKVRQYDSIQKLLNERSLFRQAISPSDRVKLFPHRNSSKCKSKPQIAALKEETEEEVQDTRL

EC50 [1] | EC50 [2] | Maximum % activity (with co-corrector) [3] | Emax (CSE-HRP, without co-corrector) | Emax [4] | EC50 [5] | EC50 [6] | Maximum % activity (with co-corrector) (with co-corrector (2 μM)) | Emax (without co-corrector) | Maximum % activity (with co-corrector) [7] | SMILES
1000 to 10000 nM | 1000 to 10000 nM | ++ (≥150 and <350) | < 100% | – | – | – | – | – | – | COc1ncc(C2CCC2)cc1CN[C@H]1[C@H](C(C)(C)C)[C@@H](C(=O)O)N(C(=O)C2CCC2)[C@H]1c1ccccc1C(F)(F)F [Example I-278]
– | – | – | – | > 200% | < 1000 nM | < 1000 nM | +++ (≥350) | – | – | COc1ccc(C(C)(C)C)cc1CN[C@H]1[C@H](C(C)(C)C)[C@@H](C(=O)O)N(C(=O)C2CCCC(C)C2)[C@H]1c1ccccc1 (some centres unmarked) [III-175]
– | – | – | – | – | 1000 to 10000 nM | 1000 to 10000 nM | +++ (≥350) | 100 to 200% | – | COc1cc(C(C)(C)C)ccc1CN[C@H]1[C@H](C(C)(C)OC)[C@@H](C(=O)O)N(C(=O)C2CCCCC2)[C@H]1c1ccccc1 [Example I-62]
– | – | – | – | – | 1000 to 10000 nM | 1000 to 10000 nM | +++ (≥350) | > 200% | – | COc1ccc(C(C)(C)C)cc1CN[C@H]1[C@H](C(C)(C)C)[C@@H](C(=O)O)N(C(=O)Cc2ccsc2)[C@H]1c1ccccc1 [Example I-92]
– | – | – | – | – | < 1000 nM | < 1000 nM | +++ (≥350) | > 200% | – | COc1ccc(C(C)(C)C)cc1CN[C@H]1[C@H](C(C)(C)C)[C@@H](C(=O)O)N(C(=O)C2CCCCC2)[C@H]1c1cccnc1N(C)C [Example I-52]
1000 to 10000 nM | 1000 to 10000 nM | +++ (≥350) | 100 to 200% | – | – | – | – | – | – | COc1cc(C(C)(C)C)ccc1CN[C@H]1[C@H](C(C)(C)C)[C@@H](C(=O)O)N(C(=O)C2CCCCC2)[C@H]1c1cccnc1OC [II-101]
– | – | – | – | < 100% | 1000 to 10000 nM | 1000 to 10000 nM | – | – | ++ (≥150 and <350) | Cc1cc(C(F)(F)F)cc(N[C@@H]2[C@@H](C(C)(C)C)[C@H](C(=O)O)N(C(=O)OC(C)C)[C@@H]2c2cccnc2N(C)C)n1 (racemic) [III-93]
1000 to 10000 nM | 1000 to 10000 nM | ++ (≥150 and <350) | < 100% | – | – | – | – | – | – | COc1ccc(C(F)(F)F)cc1CN[C@@H]1[C@@H](C(C)(C)C)[C@H](C(=O)O)N(C(=O)C2CCC3(CC2)CC3)[C@@H]1c1ccccc1 (racemic) [II-70]
– | – | – | – | < 100% | 1000 to 10000 nM | < 1000 nM | – | – | ++ (≥150 and <350) | COc1ccc(CN[C@@H]2[C@@H](C(C)(C)C)[C@H](C(=O)O)N(C(=O)C3CCCCC3)[C@@H]2c2ccccc2)c(OC)c1Cl (racemic) [III-15]
– | – | – | – | 100 to 200% | < 1000 nM | < 1000 nM | – | – | +++ (≥350) | COc1cccc(-c2cnc(OC)c(CN[C@H]3[C@H](C(C)(C)C)[C@@H](C(=O)O)N(C(=O)C4CCCCC4)[C@H]3c3ccccc3)c2)c1 [Example II-341, (2S,3S,4S,5S)-3-(tert-butyl)-1-(cyclohexanecarbonyl)-4-(((2-methoxy-5-(3-methoxyphenyl)pyridin-3-yl)methyl)amino)-5-phenylpyrrolidine-2-carboxylic acid]
– | – | – | – | > 200% | 1000 to 10000 nM | < 1000 nM | – | – | +++ (≥350) | COc1ccc(C(C)(C)C)cc1CN[C@H]1[C@H](C(C)(C)C)[C@@H](C(=O)O)N(C(=O)[C@@H]2[C@H](C(F)(F)F)[C@@H]3CC[C@H]2O3)[C@H]1c1cccnc1N(C)C (relative stereo) [II-473]
– | – | – | – | < 100% | 1000 to 10000 nM | 1000 to 10000 nM | – | – | ++ (≥150 and <350) | COc1ncc(C(F)(F)F)cc1CN[C@H]1[C@H](C(C)(C)C)[C@@H](C(=O)O)N(C(=O)[C@@H]2CCCO2)[C@H]1c1cccnc1N(C)C [II-596]

SMILES | EC50 [1] | EC50 [2] | Maximum % activity (with co-corrector) [3] | Emax (CSE-HRP, without co-corrector) | Emax [4] | EC50 [5] | EC50 [6] | Maximum % activity (with co-corrector) (with co-corrector (2 μM)) | Emax (without co-corrector) | Maximum % activity (with co-corrector) [7]
COc1ccc([Si](C)(C)C)cc1CN[C@H]1[C@H](C(C)(C)C)[C@@H](C(=O)O)N(C(=O)C2CCCCC2)[C@H]1c1ccccc1 [Example I-171] | – | – | – | – | – | < 1000 nM | < 1000 nM | – | – | –
